According to paper PMC7556876, “POMK regulates dystroglycan function via LARGE1-mediated elongation of matriglycan” (eLife, 2020):

Molecular target: T1, POMK (Protein O-Mannose Kinase) (Danio rerio, UniProt Q5U3W1)
T1 construct: Purified Danio rerio POMK
Assay: ligand-observed 1D 1H NMR titration (Man H1 peak intensity)
Assay type: binding

T1 sequence (Q5U3W1 whole entry): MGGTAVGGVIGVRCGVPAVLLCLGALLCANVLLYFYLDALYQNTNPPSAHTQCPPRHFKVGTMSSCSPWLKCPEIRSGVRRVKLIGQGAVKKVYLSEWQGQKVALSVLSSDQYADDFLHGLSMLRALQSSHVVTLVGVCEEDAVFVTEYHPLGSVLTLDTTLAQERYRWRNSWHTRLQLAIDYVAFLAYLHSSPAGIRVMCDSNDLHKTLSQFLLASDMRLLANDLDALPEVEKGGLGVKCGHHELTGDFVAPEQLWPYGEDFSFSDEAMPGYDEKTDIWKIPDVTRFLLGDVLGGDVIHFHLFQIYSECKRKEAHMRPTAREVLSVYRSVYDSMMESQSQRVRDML

Kd: > 500 µM
Structure (SMILES): CC(=O)N[C@H]1[C@H](O[C@H]2[C@H](O)[C@@H](CO)O[C@@H](O[C@H]3[C@H](O)[C@H](O)[C@@H](Oc4ccc5c(C)cc(=O)oc5c4)O[C@@H]3COP(=O)(O)O)[C@@H]2NC(C)=O)O[C@H](CO)[C@H](O)[C@@H]1O [GGMp-MU]
